{"source": "patent US20160058872A1", "about": "“IMIDE-BASED MODULATORS OF PROTEOLYSIS AND ASSOCIATED METHODS OF USE” (Arvinas, Inc., priority 2014, published 2016)", "tested_on": "c-Myc", "test": "c-Myc protein level by immunoblot in BL cell lines", "assay_type": "cell-based", "conditions": "24 hours, washout", "experimental": "Cultured cells were collected in lysis buffer containing 40 mM HEPES (pH 7.4), 140 mM NaCl, 2.5 mM EDTA, 1% NP-40, 0.1% SDS and protease inhibitor cocktail. After 10 minutes of centrifugation (14000 rpm), supernatant was collected for protein concentration determination by BCA method and subjected for immunoblotting by standard protocol. Western blot results were visualized using Bio-Rad Clarity ECL Western Blotting Substrate on Bio-Rad ChemiDoc™ MP imaging system.\nA separate set of cells were treated in the same manner, except that DMSO was used in place of the inhibitor. Following treatment, cell lysates were collected and analyzed by immunoblot for c-Myc and Actin.\nCells were re-seeded and incubated without inhibitor for 0 hr, 0.5 hr, 1.0 hr, 2.0 hr, 3.0 hr, 4.0 hr, and 6.0 hr. Cell lysates were then collected at the various time points and analyzed by immunoblot for c-Myc and Actin. In a parallel control experiment, NAMALWA cells were treated in the same manner, except DMSO was used in place of JQ1.\nAfter treatment, the cells were either lysed (to evaluate the suppression of c-Myc by the inhibitors) or washed to remove the inhibitor, re-seeded, and incubated without inhibitor for 4.0 hours (to evaluate the reversibility of c-Myc suppression). Cell lysates were collected and analyzed by immunoblot for c-Myc and Actin.\nFollowing treatment, cell lysates were collected and analyzed by immunoblot for BRD4, c-Myc and Actin.\nCells were re-seeded in fresh medium and incubated without any compound for 0 hr, 2.0 hr, 4.0 hr, 6.0 hr, and 24.0 hr. In a parallel control experiment, cells were treated in the same manner, except DMSO was used in place of inhibitor. Lysates were collected and analyzed by immunoblot for BRD4, c-Myc, and Actin."}
{"smiles": "Cc1sc2c(c1C)C(c1ccc(Cl)cc1)=N[C@@H](CC(=O)OC(C)(C)C)c1nnc(C)n1-2", "note": "[JQ1]", "values": [{"measurement": "time to recovery of c-Myc to control level after removal", "setting": "NAMALWA, 1.0 μM", "value": "≤ 4", "unit": "h"}, {"measurement": "time to return of c-Myc to control level post removal", "setting": "NAMALWA, after 1000 nM", "value": "≤ 3.0", "unit": "h"}, {"measurement": "time to significant c-Myc increase after removal", "setting": "Ramos, after 1000 nM", "value": "≤ 4.0", "unit": "h"}]}
